Experimental data: the Kinase Knowledgebase extract (Sharma et al. 2016)

Tests used:
CDK2 [1] = target: CDK2 (UniProt P24941); test: Enzyme Assay
MAPK14 (human) = MAPK14 (human) (UniProt Q16539); test: Inhibition of MAPK14 Kinase Activity; settings: for inhibition: concentration not given here
CDK2 [2] = target: CDK2 (UniProt P24941); test: Enzyme Assay; settings: for inhibition: concentration not given here
ROCK2 (rat) = ROCK2 (rat) (UniProt Q62868); test: Inhibition of ROCK2 Kinase Activity; settings: concentration not given here
Chain of ROCK2 (rat) (Q62868 whole entry, looked up): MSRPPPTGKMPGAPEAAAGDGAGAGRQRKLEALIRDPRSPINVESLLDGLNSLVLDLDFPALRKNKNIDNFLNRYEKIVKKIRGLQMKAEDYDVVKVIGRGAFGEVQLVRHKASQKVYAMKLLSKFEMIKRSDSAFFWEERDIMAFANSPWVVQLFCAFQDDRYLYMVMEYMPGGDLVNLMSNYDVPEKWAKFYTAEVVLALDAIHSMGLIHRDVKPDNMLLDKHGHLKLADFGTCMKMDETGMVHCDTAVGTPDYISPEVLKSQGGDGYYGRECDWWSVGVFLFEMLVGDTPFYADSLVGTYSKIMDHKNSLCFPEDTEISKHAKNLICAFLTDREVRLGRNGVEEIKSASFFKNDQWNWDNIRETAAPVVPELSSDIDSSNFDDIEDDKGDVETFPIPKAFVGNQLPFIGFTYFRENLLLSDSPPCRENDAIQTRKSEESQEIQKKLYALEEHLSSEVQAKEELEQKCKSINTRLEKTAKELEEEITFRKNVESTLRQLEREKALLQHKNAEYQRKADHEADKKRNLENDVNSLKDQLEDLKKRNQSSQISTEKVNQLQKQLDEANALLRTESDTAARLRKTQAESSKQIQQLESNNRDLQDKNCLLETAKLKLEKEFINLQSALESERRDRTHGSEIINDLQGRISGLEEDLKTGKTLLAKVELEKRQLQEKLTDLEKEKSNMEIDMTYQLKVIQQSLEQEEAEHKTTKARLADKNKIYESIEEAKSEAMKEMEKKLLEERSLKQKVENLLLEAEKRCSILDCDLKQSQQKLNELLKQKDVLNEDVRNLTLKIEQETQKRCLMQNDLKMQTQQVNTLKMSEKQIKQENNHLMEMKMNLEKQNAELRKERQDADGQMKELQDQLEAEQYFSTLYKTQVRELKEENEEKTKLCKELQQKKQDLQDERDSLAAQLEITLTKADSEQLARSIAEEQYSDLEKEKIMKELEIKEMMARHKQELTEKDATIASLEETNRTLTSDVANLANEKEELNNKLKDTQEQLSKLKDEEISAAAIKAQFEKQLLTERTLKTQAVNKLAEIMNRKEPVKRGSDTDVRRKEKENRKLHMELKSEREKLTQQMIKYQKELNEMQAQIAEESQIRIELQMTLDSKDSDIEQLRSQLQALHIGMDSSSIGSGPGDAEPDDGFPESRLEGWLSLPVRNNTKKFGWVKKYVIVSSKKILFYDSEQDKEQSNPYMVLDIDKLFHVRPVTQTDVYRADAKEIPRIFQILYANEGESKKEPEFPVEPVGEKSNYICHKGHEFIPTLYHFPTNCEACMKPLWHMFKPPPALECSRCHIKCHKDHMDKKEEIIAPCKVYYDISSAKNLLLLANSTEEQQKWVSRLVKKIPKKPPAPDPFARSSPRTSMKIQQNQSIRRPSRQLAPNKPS

Chain of MAPK14 (human) (Q16539 whole entry, looked up): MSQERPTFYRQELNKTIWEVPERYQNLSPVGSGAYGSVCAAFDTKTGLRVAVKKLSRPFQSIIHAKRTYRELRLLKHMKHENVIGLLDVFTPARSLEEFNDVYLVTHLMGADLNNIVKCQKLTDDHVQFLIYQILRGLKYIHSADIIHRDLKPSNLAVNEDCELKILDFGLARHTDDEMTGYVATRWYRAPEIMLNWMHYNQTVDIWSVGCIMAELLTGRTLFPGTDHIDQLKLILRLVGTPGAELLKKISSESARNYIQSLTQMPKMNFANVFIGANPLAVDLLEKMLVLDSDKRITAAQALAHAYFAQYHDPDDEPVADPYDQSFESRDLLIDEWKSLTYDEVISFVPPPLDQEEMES

| Structure (SMILES) | IC50 (CDK2 [1]) | also measured |
| --- | --- | --- |
| CCOC(=O)Cc1cccc(NS(=O)(=O)c2ccc(Nc3nccc(-c4sc(NC)nc4C)n3)cc2)c1 | – | IC50 (CDK2 [2]): 3.2 µM |
| CCNc1nc(C)c(-c2ccnc(Nc3cccc(CC(=O)OCCOC)c3)n2)s1 | – | IC50 (CDK2 [2]): 3.2 µM |
| CCNc1nc(C)c(-c2ccnc(Nc3ccc(S(=O)(=O)NCCOC)cc3)n2)s1 | – | IC50 (CDK2 [2]): 0.012 µM |
| CCNc1nc(C)c(-c2ccnc(Nc3ccc(CNC(C)=O)cc3)n2)s1 | – | IC50 (CDK2 [2]): 0.12 µM |
| Cc1nc(N)sc1-c1ccnc(Nc2ccc(S(=O)(=O)NCc3ccccc3)cc2)n1 | 0.012 µM | – |
| CNc1nc(C)c(-c2ccnc(Nc3ccc(S(C)(=O)=O)cc3)n2)s1 | 0.002 µM | – |
| CNc1nc(C)c(-c2ccnc(Nc3cccc(S(=O)(=O)NC(C)=O)c3)n2)s1 | – | IC50 (CDK2 [2]): 3.2 µM |
| CNc1nc(C)c(-c2ccnc(Nc3cccc(S(=O)(=O)NCCO)c3)n2)s1 | 0.32 µM | – |
| COCCOC(=O)COc1cccc(Nc2nccc(-c3sc(N)nc3C)n2)c1 | 1 µM | – |
| CNc1nc(C)c(-c2ccnc(Nc3ccc(S(=O)(=O)NCCOC)cc3)n2)s1 | 0.003 µM | – |
| CNc1nc(C)c(-c2ccnc(Nc3ccc(S(N)(=O)=O)cc3)n2)s1 | – | IC50 (MAPK14 (human)): > 10 µM |
| Cc1nc(N(C)c2cccnc2)sc1-c1ccnc(Nc2ccc(N3CCOCC3)cc2)n1 | 3.2 µM | – |
| CNc1nc(C)c(-c2ccnc(Nc3cccc(S(C)(=O)=O)c3)n2)s1 | – | IC50 (MAPK14 (human)): > 10 µM; IC50 (CDK2 [2]): 0.006 µM |
| CCNc1nc(C)c(-c2ccnc(Nc3ccc(S(=O)(=O)NCc4ccccc4)cc3)n2)s1 | – | IC50 (CDK2 [2]): 3.2 µM |
| CCNc1nc(C)c(-c2ccnc(Nc3ccc(N4CCN(Cc5ccccc5)CC4)cc3)n2)s1 | – | IC50 (CDK2 [2]): 3.2 µM |
| Cc1ccc(Nc2nccc(-c3sc(N)nc3C)n2)cc1S(=O)(=O)N1CCOCC1 | – | IC50 (MAPK14 (human)): > 10 µM |
| CNc1nc(C)c(-c2ccnc(Nc3ccc(OC)c(C)c3)n2)s1 | 0.12 µM | – |
| CCNc1nc(C)c(-c2ccnc(Nc3cccc(S(=O)(=O)NCC)c3)n2)s1 | 0.32 µM | – |
| Cc1nc(C)c(-c2ccnc(Nc3cccc(S(C)(=O)=O)c3)n2)s1 | 0.32 µM | – |
| CCNc1nc(C)c(-c2ccnc(Nc3ccc(S(N)(=O)=O)cc3)n2)s1 | – | IC50 (CDK2 [2]): 0.006 µM |
| Cc1nc(CS(=O)(=O)c2cccs2)sc1-c1ccnc(Nc2ccc(N3CCOCC3)cc2)n1 | – | inhibition (ROCK2 (rat)): 86%; inhibition (MAPK14 (human)): 67%; inhibition (CDK2 [2]): 91% |

Continued, in another order:

| IC50 (CDK2 [1]) | Structure (SMILES) | also measured |
| --- | --- | --- |
| 0.12 µM | Cc1nc(NC(C)(C)C)sc1-c1ccnc(Nc2ccc(N3CCOCC3)cc2)n1 | – |
| 0.32 µM | Cc1nc(C)c(-c2ccnc(Nc3cccc(N4CCOCC4)c3)n2)s1 | – |
| 3.2 µM | CNc1nc(C)c(-c2ccnc(Nc3ccc(C)c(S(=O)(=O)N4CCOCC4)c3)n2)s1 | IC50 (MAPK14 (human)): > 10 µM |
| 0.32 µM | CNc1nc(C)c(-c2ccnc(Nc3cc(OC)cc(OC)c3)n2)s1 | – |
| 0.06 µM | CNc1nc(C)c(-c2ccnc(Nc3cccc(S(=O)(=O)NC)c3)n2)s1 | – |
| 0.32 µM | Cc1nc(C)c(-c2ccnc(Nc3cccc(S(=O)(=O)NCCO)c3)n2)s1 | – |
| 0.06 µM | CCNS(=O)(=O)c1ccc(Nc2nccc(-c3sc(C)nc3C)n2)cc1 | – |
| 0.12 µM | Cc1nc(N)sc1-c1ccnc(Nc2cccc(S(=O)(=O)NCCO)c2)n1 | – |
| 3.2 µM | Cc1nc(N)sc1-c1ccnc(Nc2cccc(S(=O)(=O)N3CCOCC3)c2)n1 | – |
| 0.32 µM | CNc1nc(C)c(-c2ccnc(Nc3ccc(C)c(Br)c3)n2)s1 | – |
| 0.26 µM | COCCNS(=O)(=O)c1cccc(Nc2nccc(-c3sc(N)nc3C)n2)c1 | IC50 (MAPK14 (human)): > 10 µM |
| 0.251 µM | CCNc1nc(C)c(-c2ccnc(Nc3ccc(N4CCNCC4)cc3)n2)s1 | inhibition (ROCK2 (rat)): 95%; inhibition (MAPK14 (human)): 61%; IC50 (CDK2 [2]): 0.05 µM; inhibition (CDK2 [2]): 99% |
| 0.06 µM | Cc1nc(N)sc1-c1ccnc(Nc2cccc(CNS(=O)(=O)C(F)(F)F)c2)n1 | – |
| 2.51 µM | COc1cc(Nc2nccc(-c3sc(CO)nc3C)n2)ccc1N1CCOCC1 | – |
| 0.006 µM | CNc1nc(C)c(-c2ccnc(Nc3ccc(S(=O)(=O)NCCO)cc3)n2)s1 | – |
